Measurements from PubChem BioAssay (NCI).
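Following 48 hours of exposure in 96-well plates, responses at five concentrations were used to interpolate endpoints linearly. Abbreviation: GI50, concentration required for 50% inhibition of growth. TGI marks complete inhibition of growth.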

What was measured:
Test in all cases: inhibition of tumour cell growth, NCI panel, 48 h
786-0 renal = system: 786-0 renal
A498 renal = system: A498 renal
A549 NSCLC = system: A549 NSCLC
ACHN renal = system: ACHN renal
BT-549 breast = system: BT-549 breast
CAKI-1 renal = system: CAKI-1 renal
CCRF-CEM leukemia = system: CCRF-CEM leukemia
COLO 205 colon = system: COLO 205 colon
DU-145 prostate = system: DU-145 prostate
EKVX NSCLC = system: EKVX NSCLC
HCC-2998 colon = system: HCC-2998 colon
HCT-116 colon = system: HCT-116 colon
HCT-15 colon = system: HCT-15 colon
HL-60(TB) leukemia = system: HL-60(TB) leukemia
HOP-62 NSCLC = system: HOP-62 NSCLC
HOP-92 NSCLC = system: HOP-92 NSCLC
HS 578T breast = system: HS 578T breast
HT29 colon = system: HT29 colon
IGROV1 ovarian = system: IGROV1 ovarian
K-562 leukemia = system: K-562 leukemia
KM12 colon = system: KM12 colon
LOX IMVI melanoma = system: LOX IMVI melanoma
M14 melanoma = system: M14 melanoma
MALME-3M melanoma = system: MALME-3M melanoma
MDA-MB-231 breast = system: MDA-MB-231 breast
MDA-MB-435 = system: MDA-MB-435
MOLT-4 leukemia = system: MOLT-4 leukemia
NCI-H226 lung = system: NCI-H226 lung
NCI-H23 lung = system: NCI-H23 lung
NCI-H460 lung = system: NCI-H460 lung
NCI-H522 lung = system: NCI-H522 lung
NCI/ADR-RES ovarian = system: NCI/ADR-RES ovarian
OVCAR-3 ovarian = system: OVCAR-3 ovarian
OVCAR-4 ovarian = system: OVCAR-4 ovarian
OVCAR-5 ovarian = system: OVCAR-5 ovarian
OVCAR-8 ovarian = system: OVCAR-8 ovarian
PC-3 prostate = system: PC-3 prostate
RPMI-8226 leukemia = system: RPMI-8226 leukemia
RXF 393 renal = system: RXF 393 renal
SF-268 CNS = system: SF-268 CNS
SF-295 CNS = system: SF-295 CNS
SF-539 CNS = system: SF-539 CNS
SK-MEL-2 melanoma = system: SK-MEL-2 melanoma
SK-MEL-28 melanoma = system: SK-MEL-28 melanoma
SK-MEL-5 melanoma = system: SK-MEL-5 melanoma
SK-OV-3 ovarian = system: SK-OV-3 ovarian
SN12C renal = system: SN12C renal
SNB-19 CNS = system: SNB-19 CNS
SNB-75 CNS = system: SNB-75 CNS
SR leukemia = system: SR leukemia
SW-620 colon = system: SW-620 colon
TK-10 renal = system: TK-10 renal
U251 CNS = system: U251 CNS
UACC-257 melanoma = system: UACC-257 melanoma
UACC-62 melanoma = system: UACC-62 melanoma
UO-31 renal = system: UO-31 renal

Work on `O=C1Nc2cc(-c3ccc(NS(=O)(=O)c4ccc(F)c(Cl)c4)cc3)ccc2/C1=C/c1ccc[nH]1` yielded a GI50 (786-0 renal) of 5.54 µM, a TGI (786-0 renal) of 27 µM and a GI50 (A498 renal) of 1.93 µM. It also gave a TGI (A498 renal) of 15.5 µM, a GI50 (A549 NSCLC) of 2.35 µM and a TGI (A549 NSCLC) of 16.8 µM. For the same compound, the GI50 (ACHN renal) was 3.52 µM, the TGI (ACHN renal) was 14.6 µM and the GI50 (BT-549 breast) was 4 µM. The TGI (BT-549 breast) was 26.3 µM, the GI50 (CAKI-1 renal) was 4.63 µM and the TGI (CAKI-1 renal) was 18.6 µM. The GI50 (CCRF-CEM leukemia) was 3.28 µM, the TGI (CCRF-CEM leukemia) was 18.9 µM and the GI50 (COLO 205 colon) was 5.07 µM. For the same compound, the TGI (COLO 205 colon) was 18.9 µM, the GI50 (DU-145 prostate) was 3.74 µM and the TGI (DU-145 prostate) was 15.2 µM. The GI50 (EKVX NSCLC) was 0.0918 µM, the TGI (EKVX NSCLC) was 15.9 µM and the GI50 (HCC-2998 colon) was 3.23 µM. It also gave a TGI (HCC-2998 colon) of 20.4 µM, a GI50 (HCT-116 colon) of 3.57 µM and a TGI (HCT-116 colon) of 33.3 µM. The GI50 (HCT-15 colon) was 3.46 µM, the TGI (HCT-15 colon) was 17.6 µM and the GI50 (HL-60(TB) leukemia) was 3.34 µM. For the same compound, the TGI (HL-60(TB) leukemia) was 30.4 µM, the GI50 (HOP-62 NSCLC) was 10.3 µM and the TGI (HOP-62 NSCLC) was 26.3 µM. For the same compound, the GI50 (HOP-92 NSCLC) was 4.68 µM, the TGI (HOP-92 NSCLC) was 20.3 µM and the GI50 (HS 578T breast) was 2.96 µM. The TGI (HS 578T breast) was 19.2 µM, the GI50 (HT29 colon) was 3.31 µM and the TGI (HT29 colon) was 17.8 µM. It also gave a GI50 (IGROV1 ovarian) of 11.4 µM, a TGI (IGROV1 ovarian) of 39.9 µM and a GI50 (K-562 leukemia) of 3.79 µM. It also gave a TGI (K-562 leukemia) greater than 100 µM, a GI50 (KM12 colon) of 2.13 µM and a TGI (KM12 colon) of 7.6 µM. It also gave a GI50 (LOX IMVI melanoma) of 3.78 µM, a TGI (LOX IMVI melanoma) of 16.2 µM and a GI50 (M14 melanoma) of 5.58 µM. It also gave a TGI (M14 melanoma) of 27.2 µM, a GI50 (MALME-3M melanoma) of 10.5 µM and a TGI (MALME-3M melanoma) of 23.2 µM. The GI50 (MDA-MB-231 breast) was 4.86 µM, the TGI (MDA-MB-231 breast) was 21.3 µM and the GI50 (MDA-MB-435) was 6.52 µM. For the same compound, the TGI (MDA-MB-435) was 25.8 µM, the GI50 (MOLT-4 leukemia) was 2.33 µM and the TGI (MOLT-4 leukemia) was 16.1 µM. The GI50 (NCI-H226 lung) was 3.86 µM, the TGI (NCI-H226 lung) was 26.1 µM and the GI50 (NCI-H23 lung) was 0.533 µM. For the same compound, the TGI (NCI-H23 lung) was 8.49 µM, the GI50 (NCI-H460 lung) was 0.393 µM and the TGI (NCI-H460 lung) was 1.98 µM. It also gave a GI50 (NCI-H522 lung) of 4.19 µM, a TGI (NCI-H522 lung) of 22.4 µM and a GI50 (NCI/ADR-RES ovarian) of 7.98 µM. The TGI (NCI/ADR-RES ovarian) was 29.9 µM, the GI50 (OVCAR-3 ovarian) was 2.86 µM and the TGI (OVCAR-3 ovarian) was 17.1 µM. The GI50 (OVCAR-4 ovarian) was 2 µM, the TGI (OVCAR-4 ovarian) was 18.8 µM and the GI50 (OVCAR-5 ovarian) was 3.53 µM. It also gave a TGI (OVCAR-5 ovarian) of 19.4 µM, a GI50 (OVCAR-8 ovarian) of 12.3 µM and a TGI (OVCAR-8 ovarian) of 32.1 µM. The GI50 (PC-3 prostate) was 3.11 µM, the TGI (PC-3 prostate) was 18 µM and the GI50 (RPMI-8226 leukemia) was 2.6 µM. For the same compound, the TGI (RPMI-8226 leukemia) was 21.9 µM, the GI50 (RXF 393 renal) was 3.12 µM and the TGI (RXF 393 renal) was 16.6 µM. For the same compound, the GI50 (SF-268 CNS) was 8.27 µM, the TGI (SF-268 CNS) was 29.2 µM and the GI50 (SF-295 CNS) was 4.68 µM. For the same compound, the TGI (SF-295 CNS) was 23.2 µM, the GI50 (SF-539 CNS) was 2.67 µM and the TGI (SF-539 CNS) was 14.9 µM. For the same compound, the GI50 (SK-MEL-2 melanoma) was 18.2 µM, the TGI (SK-MEL-2 melanoma) was greater than 100 µM and the GI50 (SK-MEL-28 melanoma) was 6.91 µM. For the same compound, the TGI (SK-MEL-28 melanoma) was 29.2 µM, the GI50 (SK-MEL-5 melanoma) was 11.3 µM and the TGI (SK-MEL-5 melanoma) was 35.3 µM. For the same compound, the GI50 (SK-OV-3 ovarian) was 4.07 µM, the TGI (SK-OV-3 ovarian) was 29.7 µM and the GI50 (SN12C renal) was 11.8 µM. It also gave a TGI (SN12C renal) of 31 µM, a GI50 (SNB-19 CNS) of 13.7 µM and a TGI (SNB-19 CNS) of 35.5 µM. It also gave a GI50 (SNB-75 CNS) of 0.95 µM, a TGI (SNB-75 CNS) of 14.4 µM and a GI50 (SR leukemia) of 2.2 µM. It also gave a TGI (SR leukemia) of 17.6 µM, a GI50 (SW-620 colon) of 3.46 µM and a TGI (SW-620 colon) of 17 µM. For the same compound, the GI50 (TK-10 renal) was 5.8 µM, the TGI (TK-10 renal) was 25.8 µM and the GI50 (U251 CNS) was 11.5 µM. It also gave a TGI (U251 CNS) of 26.1 µM, a GI50 (UACC-257 melanoma) of 3.96 µM and a TGI (UACC-257 melanoma) of 21.3 µM. The GI50 (UACC-62 melanoma) was 4.9 µM, the TGI (UACC-62 melanoma) was 27.9 µM and the GI50 (UO-31 renal) was 3.22 µM. For the same compound, the TGI (UO-31 renal) was 21 µM.
